Assay results reported in ChEMBL document CHEMBL1201862, “PubChem BioAssay data set” (2004).
The source made the active and inactive calls.

Key:
[1] = test system: HEK293; assay: EBV LMP1 TES2 canonical NF-kB signalling blockers – cell-based, HEK293, luciferase, cherry-pick, dose response (AID 588343); format: functional, Homo sapiens; conditions: Homo sapiens, HEK293
[2] = P. falciparum Dd2 growth inhibitors, dose response, SYBR Green, cherry-picked samples (AID 1159567); format: functional, cell-based
[3] = test system: H9c2; assay: cells; format: functional, cell-based; conditions: Rattus norvegicus, H9c2, Myocardium;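 further: confirmatory concentration-response retest of ultra-high-throughput screening hits for modulation of myocardial damage; cell death induced by hydrogen peroxide oxidative stress; compound pretreatment for 60 min then peroxide exposure for 2 h; potency is for protecting the cells against peroxide damage rather than for killing them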
[4] = test system: BJ; assay: cells; format: functional, cell-based; conditions: Homo sapiens
[5] = cells; format: functional
[6] = test system: BJ; assay: BJ-TERT-LT-ST fibroblast viability loss – cell-based, RAS-independent, luminescence, dose response (AID 1935); format: functional; conditions: Homo sapiens;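 further: BJ fibroblasts immortalized with TERT plus LT and ST oncogenes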
[7] = target: T1, Protein RecA (Mycobacterium tuberculosis, UniProt P9WHJ3); assay: Fluorescence Cell-Free Homogeneous Dose Retest to Identify Inhibitors of RecA-Intein Splicing Activity. [Related pubchem assays (depositor defined):AID2097, AID2223, AID489010, AID492950]; format: functional
T1 sequence (P9WHJ3 whole entry): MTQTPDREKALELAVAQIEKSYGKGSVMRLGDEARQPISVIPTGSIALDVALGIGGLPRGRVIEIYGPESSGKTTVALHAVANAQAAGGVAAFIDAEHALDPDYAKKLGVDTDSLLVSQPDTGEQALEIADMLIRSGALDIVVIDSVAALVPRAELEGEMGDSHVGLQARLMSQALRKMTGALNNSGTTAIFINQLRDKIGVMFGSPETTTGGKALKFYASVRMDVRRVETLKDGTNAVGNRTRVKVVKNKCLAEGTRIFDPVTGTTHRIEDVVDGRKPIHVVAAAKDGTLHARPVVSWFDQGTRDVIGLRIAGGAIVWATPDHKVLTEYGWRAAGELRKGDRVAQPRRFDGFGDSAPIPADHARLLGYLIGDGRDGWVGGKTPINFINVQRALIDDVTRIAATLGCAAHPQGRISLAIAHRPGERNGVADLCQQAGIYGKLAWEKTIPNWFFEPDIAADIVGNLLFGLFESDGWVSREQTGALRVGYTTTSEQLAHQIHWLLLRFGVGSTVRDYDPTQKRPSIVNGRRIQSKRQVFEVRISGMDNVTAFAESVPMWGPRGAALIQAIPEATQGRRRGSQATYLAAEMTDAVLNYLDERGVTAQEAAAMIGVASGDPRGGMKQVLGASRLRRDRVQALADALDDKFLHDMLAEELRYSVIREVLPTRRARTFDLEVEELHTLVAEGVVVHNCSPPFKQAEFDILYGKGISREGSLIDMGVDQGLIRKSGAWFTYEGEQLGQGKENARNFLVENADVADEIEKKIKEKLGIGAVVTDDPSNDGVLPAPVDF

[8] = target: T2, Replicative DNA helicase DnaB (Mycobacterium tuberculosis, UniProt P9WMR3); assay: DnaB intein splicing inhibitors, dose response, biochemical, cell-free fluorescence (AID 449749); format: functional
T2 sequence (P9WMR3 whole entry): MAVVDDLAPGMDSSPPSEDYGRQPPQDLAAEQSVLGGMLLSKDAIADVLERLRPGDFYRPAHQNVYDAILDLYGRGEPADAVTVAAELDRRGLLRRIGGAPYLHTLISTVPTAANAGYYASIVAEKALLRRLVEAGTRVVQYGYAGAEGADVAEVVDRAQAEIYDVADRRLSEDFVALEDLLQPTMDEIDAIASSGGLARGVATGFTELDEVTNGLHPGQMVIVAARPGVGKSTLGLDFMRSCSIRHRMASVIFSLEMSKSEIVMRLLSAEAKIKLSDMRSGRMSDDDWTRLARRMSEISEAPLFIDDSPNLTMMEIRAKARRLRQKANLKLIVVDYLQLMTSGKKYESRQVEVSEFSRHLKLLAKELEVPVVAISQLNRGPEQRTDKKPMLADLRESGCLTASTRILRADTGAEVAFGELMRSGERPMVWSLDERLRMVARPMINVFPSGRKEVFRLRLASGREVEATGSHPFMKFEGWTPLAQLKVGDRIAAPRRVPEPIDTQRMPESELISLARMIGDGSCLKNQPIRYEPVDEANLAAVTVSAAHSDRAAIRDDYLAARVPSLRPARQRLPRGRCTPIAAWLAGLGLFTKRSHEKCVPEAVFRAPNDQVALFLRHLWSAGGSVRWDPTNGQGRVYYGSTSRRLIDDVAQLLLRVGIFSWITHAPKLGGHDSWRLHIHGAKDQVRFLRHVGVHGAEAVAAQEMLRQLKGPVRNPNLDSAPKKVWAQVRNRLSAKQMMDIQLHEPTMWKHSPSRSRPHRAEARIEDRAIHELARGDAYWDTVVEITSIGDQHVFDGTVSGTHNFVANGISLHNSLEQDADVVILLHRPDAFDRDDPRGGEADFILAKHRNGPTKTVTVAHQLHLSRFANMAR

[9] = luciferase reporter signal suppression in cells – H4 neuroglioma cells, luminescence, dose response (AID 1990); format: functional, cell-based
[10] = THP-1 cell cytotoxicity, dose response, cytotoxicity control for non-replicating M. tuberculosis project (AID 489025); format: functional
[11] = Luminescence Cell-Based Dose Confirmation HTS to Identify Inhibitors of Platelet Dense Granule Release. [Related pubchem assays: 1663 (Primary HTS), 1678 (Summary of Project)]; format: functional
[12] = alpha-synuclein stem-loop luciferase translation blockers – H4 neuroglioma cells, luminescence, confirmation (AID 1988); format: functional, cell-based
[13] = test system: BJ; assay: BJ-TERT fibroblast viability loss – cell-based, RAS-independent, luminescence, dose response (AID 1933); format: functional; conditions: Homo sapiens
[14] = target: Luciferin 4-monooxygenase (Photinus pyralis, UniProt P08659); assay: inhibition of purified Photinus pyralis luciferase – biochemical, luminescence, dose response (AID 1891)
[15] = DRD fibroblast viability loss – cell-based, non-viral oncogenic, luminescence, dose response (AID 1934); format: functional; conditions: Homo sapiens
[16] = Luminescence Cell-Based Dose Response HTS to Identify Inhibitors of 5'UTR Stem-Loop Driven Prion Protein mRNA Translation in H4 Neuroglioblastoma Cells. [Related pubchem assays: 1827 (Project Summary), 1813 (Primary HTS)]; format: functional
[17] = target: T3, Fatty acid synthase (Homo sapiens, UniProt P49327); assay: inhibition of human FAS-TE enzyme activity – biochemical, endpoint fluorescence intensity, uHTS hits, dose response (AID 624327); format: functional;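 further: fluorescence from hydrolysis of an O-methyl fluorescein acyl ester substrate by the enzyme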
[18] = target: T3, Fatty acid synthase; assay: inhibition of human FAS-TE enzyme activity – biochemical, kinetic fluorescence intensity, dose response (AID 624326); format: functional;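 further: rate of fluorescence rise from hydrolysis of a fluorogenic O-methyl fluorescein ester substrate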
[19] = target: T4, Protein skinhead-1 (Caenorhabditis elegans, UniProt P34707); format: functional
T4 sequence (P34707 whole entry): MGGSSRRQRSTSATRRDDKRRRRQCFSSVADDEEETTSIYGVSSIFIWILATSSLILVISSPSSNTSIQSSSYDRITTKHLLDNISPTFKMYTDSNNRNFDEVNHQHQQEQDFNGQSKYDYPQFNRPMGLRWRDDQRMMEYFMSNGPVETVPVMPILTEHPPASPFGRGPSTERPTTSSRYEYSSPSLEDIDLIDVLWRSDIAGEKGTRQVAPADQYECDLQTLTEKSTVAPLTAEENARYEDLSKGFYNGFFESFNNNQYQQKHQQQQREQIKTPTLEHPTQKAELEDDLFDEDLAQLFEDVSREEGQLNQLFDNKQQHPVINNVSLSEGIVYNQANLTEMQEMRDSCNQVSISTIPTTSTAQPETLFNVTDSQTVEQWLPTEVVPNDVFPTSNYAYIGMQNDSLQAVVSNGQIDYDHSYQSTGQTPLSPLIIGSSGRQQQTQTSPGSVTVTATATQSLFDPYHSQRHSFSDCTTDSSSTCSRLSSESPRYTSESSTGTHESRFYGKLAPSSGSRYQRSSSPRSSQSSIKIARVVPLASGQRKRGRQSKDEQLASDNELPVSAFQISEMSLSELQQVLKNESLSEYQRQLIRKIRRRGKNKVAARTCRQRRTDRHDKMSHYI

[20] = target: Cytochrome P450 2D6 (Homo sapiens, UniProt P10635);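 further: CYP2D6 member of a cytochrome P450 panel assay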
[21] = target: T5, Heat shock factor protein 1 (Mus musculus, UniProt P38532); assay: enhancement of HSF1-driven luciferase signal – cell-based, NIH3T3, luminescence, dose retest, confirmation (AID 435004); format: functional;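 further: stress induced by proteasome inhibitor MG132 added 30 min after compound; luciferase reporter driven by HSF1 response element in NIH3T3 cells; actives raise luminescence as potentiators of the MG132 stress response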
T5 sequence (P38532 whole entry): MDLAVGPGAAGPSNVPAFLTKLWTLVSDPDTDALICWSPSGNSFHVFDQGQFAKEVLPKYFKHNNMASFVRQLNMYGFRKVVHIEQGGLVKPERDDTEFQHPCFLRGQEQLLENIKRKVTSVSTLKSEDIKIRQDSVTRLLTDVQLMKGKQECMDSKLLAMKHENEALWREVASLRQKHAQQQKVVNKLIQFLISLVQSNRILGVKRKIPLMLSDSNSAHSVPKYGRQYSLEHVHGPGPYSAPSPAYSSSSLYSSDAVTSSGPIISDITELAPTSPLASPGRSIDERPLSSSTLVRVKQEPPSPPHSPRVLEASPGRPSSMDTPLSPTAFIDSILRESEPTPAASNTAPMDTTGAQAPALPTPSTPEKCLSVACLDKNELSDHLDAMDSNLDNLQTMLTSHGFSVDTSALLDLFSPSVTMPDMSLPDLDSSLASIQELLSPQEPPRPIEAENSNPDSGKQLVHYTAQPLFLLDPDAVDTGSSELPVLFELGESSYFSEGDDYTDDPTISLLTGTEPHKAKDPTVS

[22] = test system: Streptococcus sp. 'group A'; assay: Streptococcus pyogenes SK(-)GAS viability under kanamycin – luminescence, BacTiterGlo, confirmation, counter-screen for streptokinase expression inhibitor project, dose response (AID 1900); format: functional, organism-based
[23] = test system: Streptococcus; assay: GAS UMAA2166 growth inhibition – luminescence, BacTiterGlo, counter-screen for streptokinase expression inhibitor project, dose response (AID 1915); format: functional, organism-based;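 further: potency for reduction of bacterial viability or growth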

T3 sequence (P49327 whole entry): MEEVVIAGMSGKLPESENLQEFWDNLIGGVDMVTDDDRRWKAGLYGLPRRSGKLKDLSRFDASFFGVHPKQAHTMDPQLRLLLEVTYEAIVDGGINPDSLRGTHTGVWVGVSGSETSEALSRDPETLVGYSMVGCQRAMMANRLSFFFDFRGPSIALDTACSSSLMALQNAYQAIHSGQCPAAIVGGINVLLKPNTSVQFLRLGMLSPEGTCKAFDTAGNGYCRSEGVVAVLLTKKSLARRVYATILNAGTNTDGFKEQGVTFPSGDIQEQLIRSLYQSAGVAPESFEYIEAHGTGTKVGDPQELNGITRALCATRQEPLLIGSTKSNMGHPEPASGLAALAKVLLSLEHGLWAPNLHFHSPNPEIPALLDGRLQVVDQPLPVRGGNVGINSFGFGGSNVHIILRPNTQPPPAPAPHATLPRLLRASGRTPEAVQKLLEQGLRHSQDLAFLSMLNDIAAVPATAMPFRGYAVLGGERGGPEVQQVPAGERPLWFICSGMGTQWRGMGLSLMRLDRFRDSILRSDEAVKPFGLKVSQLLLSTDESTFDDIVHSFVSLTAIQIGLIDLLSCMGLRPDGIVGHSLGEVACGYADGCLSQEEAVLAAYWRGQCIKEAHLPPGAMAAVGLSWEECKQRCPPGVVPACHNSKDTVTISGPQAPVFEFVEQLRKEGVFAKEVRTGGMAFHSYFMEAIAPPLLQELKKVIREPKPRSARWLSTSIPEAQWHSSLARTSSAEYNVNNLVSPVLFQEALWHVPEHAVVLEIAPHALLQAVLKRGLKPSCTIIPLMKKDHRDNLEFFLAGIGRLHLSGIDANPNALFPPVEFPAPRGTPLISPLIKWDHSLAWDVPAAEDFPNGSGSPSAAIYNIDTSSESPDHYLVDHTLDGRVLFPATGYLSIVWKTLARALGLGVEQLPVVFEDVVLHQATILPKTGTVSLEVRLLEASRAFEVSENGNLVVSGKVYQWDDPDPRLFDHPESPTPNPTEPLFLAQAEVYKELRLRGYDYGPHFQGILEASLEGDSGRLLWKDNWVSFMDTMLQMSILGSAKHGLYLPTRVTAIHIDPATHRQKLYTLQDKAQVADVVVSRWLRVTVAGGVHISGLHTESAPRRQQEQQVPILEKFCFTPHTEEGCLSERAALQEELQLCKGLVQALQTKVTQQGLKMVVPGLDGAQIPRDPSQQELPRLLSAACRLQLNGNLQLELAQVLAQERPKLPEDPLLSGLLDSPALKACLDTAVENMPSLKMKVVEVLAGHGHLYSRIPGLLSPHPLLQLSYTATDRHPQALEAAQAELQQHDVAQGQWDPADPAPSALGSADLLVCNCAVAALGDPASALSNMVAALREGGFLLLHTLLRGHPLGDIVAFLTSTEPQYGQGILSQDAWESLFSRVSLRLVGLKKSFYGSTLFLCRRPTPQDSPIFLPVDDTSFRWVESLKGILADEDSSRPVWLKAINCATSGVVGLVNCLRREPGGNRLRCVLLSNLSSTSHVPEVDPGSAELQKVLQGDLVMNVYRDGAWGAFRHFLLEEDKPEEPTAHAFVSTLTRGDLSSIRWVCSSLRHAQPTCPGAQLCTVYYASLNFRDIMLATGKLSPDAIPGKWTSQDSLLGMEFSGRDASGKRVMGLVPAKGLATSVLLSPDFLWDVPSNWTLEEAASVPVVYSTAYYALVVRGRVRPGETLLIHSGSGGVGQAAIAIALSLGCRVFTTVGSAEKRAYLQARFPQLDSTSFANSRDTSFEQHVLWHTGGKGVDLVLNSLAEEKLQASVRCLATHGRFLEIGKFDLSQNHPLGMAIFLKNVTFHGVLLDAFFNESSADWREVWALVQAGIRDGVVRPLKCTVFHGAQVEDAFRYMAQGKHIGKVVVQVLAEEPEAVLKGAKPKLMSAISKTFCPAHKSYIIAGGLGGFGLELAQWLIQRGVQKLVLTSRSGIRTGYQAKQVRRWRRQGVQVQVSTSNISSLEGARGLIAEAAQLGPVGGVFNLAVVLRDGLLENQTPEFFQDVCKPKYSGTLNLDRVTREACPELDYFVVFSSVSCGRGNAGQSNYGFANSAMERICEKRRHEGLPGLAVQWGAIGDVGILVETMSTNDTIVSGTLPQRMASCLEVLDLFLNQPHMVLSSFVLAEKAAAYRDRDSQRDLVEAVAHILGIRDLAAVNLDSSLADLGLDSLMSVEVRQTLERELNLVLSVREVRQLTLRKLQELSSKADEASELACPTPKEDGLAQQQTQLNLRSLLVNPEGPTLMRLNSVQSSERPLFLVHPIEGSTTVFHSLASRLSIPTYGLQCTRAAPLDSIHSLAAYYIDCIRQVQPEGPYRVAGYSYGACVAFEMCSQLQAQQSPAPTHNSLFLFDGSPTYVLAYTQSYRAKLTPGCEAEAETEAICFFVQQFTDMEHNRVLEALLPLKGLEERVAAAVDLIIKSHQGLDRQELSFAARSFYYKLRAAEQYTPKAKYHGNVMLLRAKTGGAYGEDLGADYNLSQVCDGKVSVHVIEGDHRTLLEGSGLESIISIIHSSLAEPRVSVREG
Chain of Luciferin 4-monooxygenase (P08659 whole entry): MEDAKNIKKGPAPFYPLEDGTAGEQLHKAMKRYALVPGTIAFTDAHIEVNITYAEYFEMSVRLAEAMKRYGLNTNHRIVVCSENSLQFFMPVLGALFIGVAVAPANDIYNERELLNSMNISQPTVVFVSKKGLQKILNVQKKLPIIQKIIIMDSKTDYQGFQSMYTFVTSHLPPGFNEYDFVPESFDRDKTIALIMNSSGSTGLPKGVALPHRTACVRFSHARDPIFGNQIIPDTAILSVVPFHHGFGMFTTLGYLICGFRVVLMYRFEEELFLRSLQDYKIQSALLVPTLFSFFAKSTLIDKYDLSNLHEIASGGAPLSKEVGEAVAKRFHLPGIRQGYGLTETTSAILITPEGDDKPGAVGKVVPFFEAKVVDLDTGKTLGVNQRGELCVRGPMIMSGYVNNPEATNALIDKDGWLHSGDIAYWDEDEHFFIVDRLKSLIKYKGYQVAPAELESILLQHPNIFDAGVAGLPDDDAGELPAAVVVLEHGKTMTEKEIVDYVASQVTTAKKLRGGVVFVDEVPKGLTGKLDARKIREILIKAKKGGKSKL
Chain of Cytochrome P450 2D6 (P10635 whole entry): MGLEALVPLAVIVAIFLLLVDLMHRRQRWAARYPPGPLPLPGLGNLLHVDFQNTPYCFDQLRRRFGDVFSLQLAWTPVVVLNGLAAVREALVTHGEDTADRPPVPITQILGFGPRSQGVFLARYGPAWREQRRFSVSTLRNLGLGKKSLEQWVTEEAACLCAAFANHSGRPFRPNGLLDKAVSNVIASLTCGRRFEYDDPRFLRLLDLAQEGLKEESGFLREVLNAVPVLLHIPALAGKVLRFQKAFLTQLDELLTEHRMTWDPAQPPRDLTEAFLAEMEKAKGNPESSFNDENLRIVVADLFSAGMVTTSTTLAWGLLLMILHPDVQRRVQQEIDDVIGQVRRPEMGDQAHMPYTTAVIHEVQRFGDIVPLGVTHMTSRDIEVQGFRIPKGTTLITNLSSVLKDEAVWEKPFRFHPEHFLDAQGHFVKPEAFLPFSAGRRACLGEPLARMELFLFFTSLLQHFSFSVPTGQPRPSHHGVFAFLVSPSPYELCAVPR

O=C1C2CCCN2c2ccc(S(=O)(=O)N3CCOCC3)cc2N1Cc1ccccc1F (configuration not stated)
AC50 [1]: > 350 µM (inactive)

C[C@H]1CN([C@@H](C)CO)C(=O)c2c(c3ccccc3n2C)-c2ccccc2CO[C@@H]1CN(C)S(=O)(=O)c1ccccc1F
AC50 [2]: 3.81 µM (active)

CC(C)(C)OC(=O)CNC(=O)c1[nH]cnc1C(=O)NCC(=O)OCc1ccccc1
IC50 [3]: > 79 µM (inactive)

O=C(Nc1ncc([N+](=O)[O-])s1)c1ccc2c(c1)OCO2
EC50 [4]: 13.5 µM (active) | IC50 [5]: 34.4 µM (active) | EC50 [6]: > 150 µM (inconclusive) | EC50 [7]: 16.5 µM (active) | AC50 [8]: 21.2 µM (active) | EC50 [9]: 4.23 µM (active) | CC50 [10]: 28.9 µM (active) | EC50 [11]: 2.39 µM (active) | EC50 [12]: 3.42 µM (active) | EC50 [13]: 14.1 µM (active) | EC50 [14]: 0.324 µM (active) | EC50 [15]: 10.3 µM (active) | EC50 [16]: 7.3 µM (active)

O=[N+]([O-])c1ccc(S(=O)(=O)NN=Cc2ccc(Cl)c(Cl)c2)cc1
IC50 [17]: 1.52 µM (active) | IC50 [18]: 2.68 µM (active)

Cc1ccc([N+](=O)[O-])cc1N=C(S)NCCc1ccccc1
IC50 [17]: 12.1 µM (active) | IC50 [18]: 13.1 µM (active)

COc1ccc(N2CC(C(=O)NCc3nnc(O)c4ccccc34)CC2=O)cc1 (configuration not stated)
IC50 [3]: 12.9 µM (active)

CCCNC(=O)N1CCC2(CC1)CN(Cc1cccc(F)c1)[C@@H](CO)c1[nH]c3cc(OC)ccc3c12
AC50 [2]: 10.2 µM (active)

Cc1c(Cl)c([N+](=O)[O-])nn1CCCC(=O)Nc1cccc(Cl)c1
IC50 [17]: 17.6 µM (active) | IC50 [18]: 16.2 µM (active)

O=C(c1cc(O)nc2ccccc12)N1CCN(S(=O)(=O)c2ccc(Cl)cc2)CC1
IC50 [3]: 14.4 µM (active)

COC(=O)C1=C(C)N=C(C)/C(=C(/O)OC)C1c1ccc(OC(=O)c2ccco2)cc1 (configuration not stated)
IC50 [19]: > 100 µM (inactive)

CCCC(=O)N1CCC2(CC1)CN[C@@H](CO)c1[nH]c3cc(OC)ccc3c12
AC50 [2]: 6.24 µM (active)

CC(C)c1ccc(NC(=O)NCc2cccnc2)cc1
IC50 [19]: > 100 µM (inactive)

COc1ccc(C2CC(c3cccs3)n3nc(N)nc3N2)cc1 (configuration not stated)
IC50 [3]: > 79 µM (inactive)

COC(=O)c1cccc(S(=O)(=O)N(Cc2ccco2)Cc2cc3cc(OC)ccc3nc2O)c1
IC50 [3]: 31.7 µM (inactive)

O=C(Cn1c(=O)c2sccc2n(Cc2ccc([N+](=O)[O-])cc2)c1=O)NCCc1ccccc1
IC50 [17]: 5.6 µM (active) | IC50 [18]: 4.79 µM (active)

C=CCNc1nc(-c2ccc(Cl)cc2)cs1
AC50 [20]: 25.1 µM (inconclusive) | IC50 [19]: > 100 µM (inactive)

COc1ccc2c3c([nH]c2c1)[C@@H](CO)N(C(=O)Cc1ccccc1)CC31CCN(C(=O)Cc2ccccc2)CC1
AC50 [2]: 4.77 µM (active)

COc1ccc(/C=N/Nc2cc(OC)ncn2)cc1
AC50 [1]: 11.2 µM (active) | EC50 [21]: > 260 µM (inactive) | EC50 [11]: 5.24 µM (active) | EC50 [14]: 6.11 µM (active)

COc1cccc(C(=O)O/N=C(\N)c2ccccn2)c1OC
AC50 [1]: 2.67 µM (active)

Cc1cc2cc(CN(Cc3ccco3)S(=O)(=O)c3c(C)ccc4nsnc34)c(O)nc2cc1C
AC50 [1]: 0.968 µM (active)

COc1ccc(NC(=O)N(CCCN(C)C)Cc2cc3cc(OC)ccc3nc2O)cc1
IC50 [3]: > 79 µM (inactive)

O=C(Cn1[nH]c(=O)c2ccccc2c1=O)NNC(=O)c1ccccc1
IC50 [3]: 18.6 µM (active)

O=C(CCc1nc(O)c2ccccc2n1)N1CCCc2ccccc21
IC50 [3]: > 79 µM (inactive)

Cc1cccc(Cn2c(Sc3nc(C)cs3)nc3c2c(=O)[nH]c(=O)n3C)c1
IC50 [19]: > 100 µM (inactive)

O=C(Nc1ccccc1)OCCCc1ccccc1 [3-PHENYLPROPYL PHENYLCARBAMATE]
IC50 [19]: 68.6 µM (inactive)

O=C(Nc1nnc(-c2ccco2)o1)c1ccc(Cl)s1
IC50 [5]: 1.57 µM (active) | EC50 [22]: 3.01 µM (active) | CC50 [10]: > 40 µM (active) | EC50 [23]: 10.1 µM (active)

Cc1cc(C)c2c(N)c(C(=O)N/N=C/c3cccnc3)sc2n1
IC50 [3]: > 79 µM (inactive)

COc1ccc2c3c([nH]c2c1)[C@@H](CO)N(Cc1cccc(Cl)c1)CC31CN(C(C)=O)C1
AC50 [2]: 10.6 µM (active)
